Tests used:
connexin 26 (Cx26) K188N = target: T1, connexin 26 (Cx26) K188N (Homo sapiens, UniProt P29033, K188N); test: microscale thermophoresis (MST); format: binding; details: read-out: EC50
T1 construct: gene GJB2; purified recombinant connexin channel, His-tag Cy5 labeled

connexin 26 (Cx26) = target: T2, connexin 26 (Cx26) (Homo sapiens, UniProt P29033); test: microscale thermophoresis (MST); format: binding; details: read-out: EC50
T2 construct: gene GJB2; purified recombinant WT connexin channel, His-tag Cy5 labeled

Kd (connexin 26 (Cx26) K188N): 4.75 ± 1 µM
Kd (connexin 26 (Cx26)): 19.3 ± 7.3 µM
Compound: O=C(Nc1ncc([C@H](c2ccccc2Cl)N2CC[C@@H](O)C2)s1)C1(c2ccc3c(c2)OCO3)CC1 [compound 3, 1-(benzo[d][1,3]dioxol-5-yl)-N-(5-((S)-(2-chlorophenyl)((R)-3-hydroxypyrrolidin-1-yl)methyl)thiazol-2-yl) cyclopropanecarboxamide]

— PMC10353060, “A Chemical Chaperone Restores Connexin 26 Mutant Activity” (ACS Pharmacology & Translational Science, 2023)
